Reference: PMC10099595, “Multimodal 4-arylchromene derivatives with microtubule-destabilizing, anti-angiogenic, and MYB-inhibitory activities” (Cancer Drug Resistance, 2023)

Columns and labels:
[1] = test system: HDFa adult human dermal fibroblasts; design: method as in Köhler et al.[20]; conditions: non-malignant cells; ref Köhler et al.[20]; cited from earlier work
U-87 glioblastoma cells = conditions: positive control; ref Köhler et al.[20]; read-out: IC50 U87; cited from earlier work
[2] = test system: tested cancer and hybrid cell lines; assay: MTT assay, average over all tested cancer and hybrid cell lines
[3] = test system: KB-V1^Vbl cervix carcinoma cells; conditions: without verapamil; ref Köhler et al.[20]; cited from earlier work
[4] = test system: HCT-116 colon carcinoma cells; conditions: positive control; ref Köhler et al.[20]; cited from earlier work
[5] = test system: HCT-116 p53-/- colon carcinoma cells; conditions: positive control; ref Köhler et al.[20]; cited from earlier work
[6] = test system: HT-29 colon carcinoma cells; conditions: positive control; ref Köhler et al.[20]; cited from earlier work
518A2 melanoma cells = conditions: positive control; ref Köhler et al.[20]; cited from earlier work
[7] = test system: MCF-7 breast carcinoma cells; conditions: positive control; ref Köhler et al.[20]; cited from earlier work
[8] = test system: HeLa cervix carcinoma cells; design: method as in Köhler et al.[20]; conditions: positive control; ref Köhler et al.[20]; cited from earlier work
[9] = test system: EA.hy926 endothelial hybrid cells; conditions: positive control; ref Köhler et al.[20]; cited from earlier work

IC50 ([2]; Homo sapiens, read-out: Average IC50 value of the tested cancer and hybrid cell lines (Ø IC50), average of all cell lines of Table 2): 52 nM
Structure (SMILES): N#CC1=C(N)Oc2c(ccc3ccccc23)C1c1cccc([N+](=O)[O-])c1 (stereo not drawn) [1A, 2-amino-4-(3-nitrophenyl)-4H-naphtho(1,2-b)pyran-3-carbonitrile]
IC50 [1]: 40700 nM | IC50 (U-87 glioblastoma cells): 70 ± 9 nM | SI (IC50 HDFa cells/IC50 tumor cell average) ([2]; selectivity index, HDFa vs tumor cell average): 786 | IC50 [3]: 20 ± 2 nM | IC50 [4]: 8 ± 0.7 nM | IC50 [5]: 30 ± 3 nM | IC50 [6]: 30 ± 3 nM | IC50 (518A2 melanoma cells): 10 ± 1 nM | IC50 [7]: 200 ± 20 nM | IC50 [8]: 40 ± 2 nM | IC50 [9]: 30 ± 1 nM
